{"source": "patent US11908550B2", "about": "“Method for determining different PBDEs derivatives from their response to activities of enoyl-ACP reductase” (Nanjing University, priority 2020, dated 2024)", "note": "“Also recorded” adds a separate entry of the source."}
{"molecular_target": "T1, enoyl-ACP reductase (recombinant FabI) (Escherichia coli, UniProt P0AEK4)", "T1 construct": "His; made in house; host or cells: E. coli", "T1 sequence (P0AEK4 whole entry)": "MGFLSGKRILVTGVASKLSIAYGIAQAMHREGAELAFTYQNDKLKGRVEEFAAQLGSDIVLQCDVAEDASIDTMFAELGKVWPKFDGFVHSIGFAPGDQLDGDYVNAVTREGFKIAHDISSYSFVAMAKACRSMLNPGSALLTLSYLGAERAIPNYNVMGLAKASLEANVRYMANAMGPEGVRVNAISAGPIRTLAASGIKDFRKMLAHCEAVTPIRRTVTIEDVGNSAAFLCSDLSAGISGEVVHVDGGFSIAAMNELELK", "experiment": "in vitro binding activity assay (FabI enzyme activity, oxidation rate of NADH to NAD+ at 340 nm)", "type": "biochemical, E. coli", "details": "PBDEs 0.014-10 μM incubated with 100 nM recombinant FabI on ice for 60 minutes", "description": "The in vitro binding activity assay was as follows: overexpression of His-labeled FabI in the E. coli lysate was prepared. When the bacterial optical density (OD600) reached 0.6, the expression was induced overnight with 1 mm IPTG at 16° C. Then, the bacteria were collected and washed once with PBS. The bacteria were lysed in the lysis buffer containing 500 mM NaCl, 10 mm Tris HCl and 0.1% NP-40 (pH=8.5). FabI was purified from the supernatant with Ni-NTA agarose (Qiagen) and centrifuged at 14000 g for 30 min. The resin containing Ni-NTA was transferred to a Poly-Prep column (Bio-Red) and equilibrated twice with washing buffer (50 mm PBS, pH 8.2, 300 mM NaCl and 10 mm imidazole). After incubation with FabI lysate at 4° C. for 30 minutes, the resin was washed twice with a washing buffer, and the FabI protein was eluted with a buffer containing 50 mm PBS, pH 8.2, 300 mM NaCl and 250 mm imidazole. 300 μM butyl coenzyme A was added and followed by adding the mixture of 100 nM recombinant FabI, 400 μM NADH and 40 μM NAD+. The oxidation rate of NADH to NAD+ was measured every 2 minutes with a microplate reader at 340 nm. In order to determine the inhibition ability of PBDEs derivatives to the FabI enzyme activity, PBDEs with different concentrations (0.014-10 μM) were incubated with 100 nM recombinant FabI on ice for 60 minutes, and then the oxidation rate of NADH to NAD+ was determined."}
{"compound": "Oc1c(Br)c(Br)c(Br)c(Br)c1Oc1ccc(Br)cc1Br", "note": "[6OHBDE137]", "in vitro measurement of the binding activity": "Inhibit"}
{"compound": "Oc1c(Br)cc(Br)c(Br)c1Oc1ccc(Br)cc1Br", "note": "[6OHBDE90]", "in vitro measurement of the binding activity": "Inhibit"}
{"compound": "COc1cc(Br)cc(Br)c1Oc1ccccc1Br", "note": "[6MeOBDE17]", "in vitro measurement of the binding activity": "No inhibition; also recorded: No inhibit"}
{"compound": "COc1c(Br)cc(Br)c(Br)c1Oc1ccc(Br)cc1Br", "note": "[6MeOBDE90]", "in vitro measurement of the binding activity": "No inhibition; also recorded: No inhibit"}
{"compound": "COc1cc(Br)c(Br)c(Br)c1Oc1ccc(Br)cc1Br", "note": "[6MeOBDE85]", "in vitro measurement of the binding activity": "No inhibition; also recorded: No inhibit"}
{"compound": "Oc1cc(Br)c(Oc2ccc(Br)cc2Br)cc1Br", "note": "[4OHBDE49]", "in vitro measurement of the binding activity": "able to inhibit; also recorded: inhibition"}
{"compound": "COc1cc(Oc2ccc(Br)cc2Br)c(Br)cc1Br", "note": "[5MeOBDE47]", "in vitro measurement of the binding activity": "No inhibition; also recorded: No inhibit"}
{"compound": "Oc1cc(Br)cc(Br)c1Oc1ccc(Br)cc1Br", "note": "[6OHBDE47]", "in vitro measurement of the binding activity": "Inhibit"}
{"compound": "Oc1cc(Cl)ccc1Oc1ccc(Cl)cc1Cl", "note": "[TCS, Triclosan, reference compound]", "in vitro measurement of the binding activity": "Inhibit"}
{"compound": "Oc1cc(Br)cc(Br)c1Oc1ccccc1Br", "note": "[6OHBDE17]", "in vitro measurement of the binding activity": "Inhibit"}
{"compound": "COc1ccc(Oc2ccc(Br)cc2Br)c(Br)c1", "note": "[4MeOBDE17]", "in vitro measurement of the binding activity": "No inhibition; also recorded: No inhibit"}
{"compound": "Oc1c(Oc2ccc(Br)cc2Br)cc(Br)c(Br)c1Br", "note": "[2OHBDE123]", "in vitro measurement of the binding activity": "No inhibition; also recorded: No inhibit"}
{"compound": "COc1cc(Br)cc(Br)c1Oc1ccc(Br)cc1Br", "note": "[6MeOBDE47]", "in vitro measurement of the binding activity": "No inhibition; also recorded: No inhibit"}
